Where two headings read alike, the source gives them in different places.
What was measured:
[1] = tested on: Human gastric cancer cell SNU-5; test: Inhibition of in vitro proliferation of human gastric cancer cell SNU-5 (SRB); format: cell-based; settings: SNU-5 cells, 72-hr agent treatment, read-out: Strength of activity (inhibition on SNU-5, IC50)
Protocol: Human gastric cancer cells SNU-5 are cultured in an IMDM medium containing 20% fetal bovine serum, and the culture conditions are 37° C. and 5% CO2. Tumor cells are inoculated in a 96-well plate, and after 24-hr sidewall growth, 9 different concentrations of (1 to 30000 nM) an agent are added, after 72-hr agent treatment, the medium is discarded, the cells are fixed by cold trichloroacetic acid, and then dyed with a sulforhodamine B (SRB) solution. Unbound SRB is washed off, and SRB bound with protein was dissolved with Tris, the OD is determined at a wavelength of 510 nm by a microplate reader, and the cell growth inhibition rate is calculated according to the following equation: Inhibition rate=(OD of control well-OD of administered well)/OD of control well×100%
According to the inhibition rates of different concentrations, the half inhibitory concentration IC50 is calculated by using a Logit method.

c-Met kinase = biological target: T1, c-Met kinase (Homo sapiens, UniProt P08581); test: Inhibitory activity of compound to c-Met kinases (Z'-LYTE kinase assay kit); format: biochemical; settings: Tyr 6 substrate peptide, read-out: Strength of activity (inhibition on c-Met kinase, IC50)
T1 construct: purchased Invitrogen PV3143
T1 sequence (P08581 25-1390): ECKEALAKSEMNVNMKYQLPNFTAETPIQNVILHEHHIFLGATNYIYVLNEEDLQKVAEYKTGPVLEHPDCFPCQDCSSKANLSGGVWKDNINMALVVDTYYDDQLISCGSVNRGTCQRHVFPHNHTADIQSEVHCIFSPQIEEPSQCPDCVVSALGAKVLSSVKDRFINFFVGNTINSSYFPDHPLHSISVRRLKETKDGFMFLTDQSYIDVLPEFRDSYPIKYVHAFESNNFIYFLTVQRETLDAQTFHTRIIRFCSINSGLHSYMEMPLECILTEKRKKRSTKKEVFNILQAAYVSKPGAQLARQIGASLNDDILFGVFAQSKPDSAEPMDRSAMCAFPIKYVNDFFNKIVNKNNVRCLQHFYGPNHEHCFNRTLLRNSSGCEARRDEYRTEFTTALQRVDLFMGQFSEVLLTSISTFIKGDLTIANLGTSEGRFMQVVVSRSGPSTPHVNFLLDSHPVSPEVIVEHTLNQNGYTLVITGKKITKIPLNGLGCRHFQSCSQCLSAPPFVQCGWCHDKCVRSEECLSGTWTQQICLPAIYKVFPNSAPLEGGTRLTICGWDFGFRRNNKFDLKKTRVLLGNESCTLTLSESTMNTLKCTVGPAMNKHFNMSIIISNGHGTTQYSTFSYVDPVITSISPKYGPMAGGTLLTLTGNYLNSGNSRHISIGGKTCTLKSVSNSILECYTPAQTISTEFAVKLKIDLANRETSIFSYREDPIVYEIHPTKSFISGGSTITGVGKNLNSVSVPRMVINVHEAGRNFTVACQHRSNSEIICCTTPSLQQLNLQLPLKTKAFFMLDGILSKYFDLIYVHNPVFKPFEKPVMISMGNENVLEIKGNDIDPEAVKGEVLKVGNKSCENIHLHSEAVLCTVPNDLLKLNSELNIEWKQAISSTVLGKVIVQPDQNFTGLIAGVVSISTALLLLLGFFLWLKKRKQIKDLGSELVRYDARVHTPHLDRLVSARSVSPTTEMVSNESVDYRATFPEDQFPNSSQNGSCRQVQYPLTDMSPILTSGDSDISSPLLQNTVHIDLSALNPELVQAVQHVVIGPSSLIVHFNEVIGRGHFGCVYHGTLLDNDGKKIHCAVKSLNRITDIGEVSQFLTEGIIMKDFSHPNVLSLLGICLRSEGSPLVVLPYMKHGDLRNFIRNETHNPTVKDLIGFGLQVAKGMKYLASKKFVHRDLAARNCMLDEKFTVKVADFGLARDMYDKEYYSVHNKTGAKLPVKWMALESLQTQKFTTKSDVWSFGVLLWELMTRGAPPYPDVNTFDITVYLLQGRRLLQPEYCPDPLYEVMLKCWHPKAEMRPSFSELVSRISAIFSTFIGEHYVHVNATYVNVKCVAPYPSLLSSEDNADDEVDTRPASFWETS
Protocol: The inhibitory activity of the compound to c-Met kinases in vitro is determined through the following method.
The method described below can be used to determine the inhibiting capacity of the compound of the present invention on the c-Met kinase activity, and the inhibiting capacity is represented by IC50. The half inhibitory concentration IC50 (a concentration of the compound for inhibiting the enzyme activity to 50%) of the compound is obtained by: mixing and reacting a certain amount of kinase with a specific substrate and different concentrations of test compound, and then labeling the substrate with an anti-phosphotyrosine antibody and a […], and finally quantitatively determining the c-Met kinase activity through a time-resolved fluorescence method.
The specific experiment is implemented by using a Z′-LYTE kinase assay kit (Invitrogen, item PV4122). First, the test compound is diluted into 8 different concentrations from 100 μM at an interval of 1:5 with an ATP solution (Invitrogen, item PV3227); 5 μL 2×c-Met (Invitrogen, item PV3143) and 2×Z′-LYTE Tyr 6 substrate peptide are respectively taken up, and added to a 384-well microtiter plate, 5 μL diluted different concentrations of test compound are added in sequence, and the lid is closed. The microtiter plate is incubated for 60 min at room temperature (20° C. to 25° C.); and then 5 μL […] is added, and the lid is closed. The microtiter plate is incubated for 60 min at room temperature (20° C. to 25° C.); and then 5 μL termination reagent is added to the reaction well, to terminate the reaction. Finally, the fluorescence intensity (OD400) of each well is determined in a fluorescence analyzer (excitation wavelength: 400 nm). The inhibition rate is calculated, and the half inhibitory concentration (IC50) of the compound is calculated according to the inhibition rates of different concentrations.
For a negative control group, except that test compound (replaced by 5 μL ATP solution) is not added, all the other reagents are added. In addition, an enzyme-free control group (that is, blank group) is set.

| Structure (SMILES) | IC50 ([1]; Homo sapiens) | IC50 (c-Met kinase) | IC50 [1] |
| --- | --- | --- | --- |
| CN(C)c1nc2cc(C(=O)Nc3ccc(Oc4ccnc(N)c4Cl)c(F)c3)c(=O)n(-c3ccc(F)cc3)c2s1 [Embodiment 23] | 0.1 to 0.5 µM | 0.01 to 0.1 µM | – |
| COc1cc2c(Oc3ccc(NC(=O)c4cc5cnn(C)c5n(-c5ccc(F)cc5)c4=O)cc3F)ccnc2cc1OCCCN1CCOCC1 [Embodiment 32] | 0.1 to 0.5 µM | 0.1 to 1 µM | – |
| CN1CCOc2c1cc(C(=O)Nc1ccc(Oc3ccnc(N)c3)c(F)c1)c(=O)n2-c1ccc(F)cc1 [Embodiment 43] | – | 0.01 to 0.1 µM | – |
| CN1CCOc2cc(C(=O)Nc3ccc(Oc4ccnc(N)c4)c(F)c3)c(=O)n(-c3ccc(F)cc3)c21 [Embodiment 39] | – | 0.01 to 0.1 µM | – |
| COc1ccc2c(Oc3ccc(NC(=O)c4cc5c(n(-c6ccc(F)cc6)c4=O)N(C)CCO5)cc3F)ccnc2c1 [Embodiment 40] | – | < 0.01 µM | – |
| CCOc1c(C(=O)Nc2ccc(Oc3ccnc(N)c3)c(F)c2)c(=O)n(-c2ccc(F)cc2)c2scnc12 [Embodiment 48] | – | 0.1 to 1 µM | – |
| Cn1cnc2cc(C(=O)Nc3ccc(Oc4ccnc(N)c4Cl)c(F)c3)c(=O)n(-c3ccc(F)cc3)c21 [Embodiment 33] | – | 0.01 to 0.1 µM | – |
| CN(C)C/C=C/C(=O)Nc1cc(Oc2ccc(NC(=O)c3cc4ncsc4n(-c4ccc(F)cc4)c3=O)cc2F)ccn1 [Embodiment 15] | – | 0.01 to 0.1 µM | – |
| Cn1ncc2cc(C(=O)Nc3ccc(Oc4ccnc(N)c4)c(F)c3)c(=O)n(-c3ccc(F)cc3)c21 [Embodiment 28] | 0.5 to 5 µM | 0.1 to 1 µM | – |
| CCn1cnc(-c2cc3nccc(Oc4ccc(NC(=O)c5cc6ncsc6n(-c6ccc(F)cc6)c5=O)cc4F)c3s2)c1 [Embodiment 7] | 0.1 to 0.5 µM | 0.01 to 0.1 µM | – |
| Cn1cnc(-c2cc3nccc(Oc4ccc(NC(=O)c5cc6ncsc6n(-c6ccc(F)cc6)c5=O)cc4F)c3s2)c1 [Embodiment 6] | – | 0.01 to 0.1 µM | 0.1 to 0.5 µM |
| COc1ccc2c(Oc3ccc(NC(=O)c4cc5nc(N(C)C)sc5n(-c5ccc(F)cc5)c4=O)cc3F)ccnc2c1 [Embodiment 25] | 0.5 to 5 µM | 0.1 to 1 µM | – |
| CN1CCOc2c1cc(C(=O)Nc1ccc(Oc3ccnc(N)c3Cl)c(F)c1)c(=O)n2-c1ccc(F)cc1 [Embodiment 46] | – | 0.01 to 0.1 µM | – |
| CN1CCN(C(=O)Nc2cc(Oc3ccc(NC(=O)c4cc5ncsc5n(-c5ccc(F)cc5)c4=O)cc3F)ccn2)CC1 [Embodiment 10] | < 0.1 µM | 0.1 to 1 µM | – |
| CN1CCOc2cc(C(=O)Nc3ccc(Oc4ccnc(N)c4Cl)c(F)c3)c(=O)n(-c3ccc(F)cc3)c21 [Embodiment 38] | 0.5 to 5 µM | 0.1 to 1 µM | – |
| Cn1ncc2cc(C(=O)Nc3ccc(Oc4ccnc5[nH]ccc45)c(F)c3)c(=O)n(-c3ccc(F)cc3)c21 [Embodiment 31] | 0.1 to 0.5 µM | 0.01 to 0.1 µM | – |
| O=C(Nc1ccc(Oc2ccnc(NC(=O)N3CCOCC3)c2Cl)c(F)c1)c1cc2ncsc2n(-c2ccc(F)cc2)c1=O [Embodiment 17] | 0.1 to 0.5 µM | < 0.01 µM | – |
| COc1ccc2c(Oc3ccc(NC(=O)c4cc5c(n(-c6ccc(F)cc6)c4=O)OCCN5C)cc3F)ccnc2c1 [Embodiment 47] | – | < 0.01 µM | – |
| Cc1n[nH]c2nccc(Oc3ccc(NC(=O)c4cc5ncsc5n(-c5ccc(F)cc5)c4=O)cc3F)c12 [Embodiment 8] | 0.5 to 5 µM | 0.01 to 0.1 µM | – |
| COc1cc2c(Oc3ccc(NC(=O)c4cc5c(n(-c6ccc(F)cc6)c4=O)OCCN5C)cc3F)ccnc2cc1OCCCN1CCOCC1 [Embodiment 45] | – | 0.1 to 1 µM | – |
| CN(C)CC1CCN(C(=O)Nc2cc(Oc3ccc(NC(=O)c4cc5ncsc5n(-c5ccc(F)cc5)c4=O)cc3F)ccn2)CC1 [Embodiment 13] | – | 0.01 to 0.1 µM | – |
| CN(CCO)c1c(C(=O)Nc2ccc(Oc3ccnc4[nH]ccc34)c(F)c2)c(=O)n(-c2ccc(F)cc2)c2scnc12 [Embodiment 59] | – | 0.1 to 1 µM | – |
| COc1cc2c(Oc3ccc(NC(=O)c4cc5c(n(-c6ccc(F)cc6)c4=O)N(C)CCO5)cc3F)ccnc2cc1OCCCN1CCOCC1 [Embodiment 42] | – | 0.1 to 1 µM | – |
| CN(C)c1nc2cc(C(=O)Nc3ccc(Oc4ccnc(N)c4)c(F)c3)c(=O)n(-c3ccc(F)cc3)c2s1 [Embodiment 24] | 0.1 to 0.5 µM | < 0.01 µM | – |

| Structure (SMILES) | IC50 ([1]; Homo sapiens) | IC50 (c-Met kinase) | IC50 [1] |
| --- | --- | --- | --- |
| Nc1cc(Oc2ccc(NC(=O)c3cc4ncsc4n(-c4ccccc4CCO)c3=O)cc2F)ccn1 [Embodiment 18] | 0.5 to 5 µM | 0.1 to 1 µM | – |
| CN1CCN(C(=O)Nc2nccc(Oc3ccc(NC(=O)c4cc5ncsc5n(-c5ccc(F)cc5)c4=O)cc3F)c2Cl)CC1 [Embodiment 16] | 0.1 to 0.5 µM | 0.1 to 1 µM | – |
| CCOc1c(C(=O)Nc2ccc(Oc3ccnc4cc(OC)ccc34)c(F)c2)c(=O)n(-c2ccc(F)cc2)c2scnc12 [Embodiment 50] | – | 0.01 to 0.1 µM | – |
| CN(C)c1c(C(=O)Nc2ccc(Oc3ccnc(N)c3)c(F)c2)c(=O)n(-c2ccc(F)cc2)c2scnc12 [Embodiment 52] | – | 0.01 to 0.1 µM | – |
| CN(C)c1c(C(=O)Nc2ccc(Oc3ccnc(N)c3Cl)c(F)c2)c(=O)n(-c2ccc(F)cc2)c2scnc12 [Embodiment 53] | – | < 0.01 µM | – |
| Cn1ncc2cc(C(=O)Nc3ccc(Oc4ccnc(N)c4Cl)c(F)c3)c(=O)n(-c3ccc(F)cc3)c21 [Embodiment 29] | < 0.1 µM | < 0.01 µM | – |
| CN(CCO)c1c(C(=O)Nc2ccc(Oc3ccnc(N)c3Cl)c(F)c2)c(=O)n(-c2ccc(F)cc2)c2scnc12 [Embodiment 57] | – | 0.1 to 1 µM | – |
| O=C(Nc1ccc(Oc2ccnc(NC(=O)N3CCC(O)CC3)c2)c(F)c1)c1cc2ncsc2n(-c2ccc(F)cc2)c1=O [Embodiment 12] | 0.1 to 0.5 µM | 0.01 to 0.1 µM | – |
| COc1ccc2c(Oc3ccc(NC(=O)c4cc5ncsc5n(-c5ccccc5CCO)c4=O)cc3F)ccnc2c1 [Embodiment 20] | < 0.1 µM | 0.1 to 1 µM | – |
| Cn1cnc2cc(C(=O)Nc3ccc(Oc4ccnc5[nH]ccc45)c(F)c3)c(=O)n(-c3ccc(F)cc3)c21 [Embodiment 36] | 0.5 to 5 µM | 0.01 to 0.1 µM | – |
| COc1cc2c(Oc3ccc(NC(=O)c4cc5ncsc5n(-c5ccccc5CCO)c4=O)cc3F)ccnc2cc1OCCCN1CCOCC1 [Embodiment 22] | 0.5 to 5 µM | > 1 µM | – |
| COc1cc2c(Oc3ccc(NC(=O)c4cc5nc(N(C)C)sc5n(-c5ccc(F)cc5)c4=O)cc3F)ccnc2cc1OCCCN1CCOCC1 [Embodiment 27] | – | 0.01 to 0.1 µM | – |
| CCOc1c(C(=O)Nc2ccc(Oc3ccnc(N)c3Cl)c(F)c2)c(=O)n(-c2ccc(F)cc2)c2scnc12 [Embodiment 49] | – | < 0.01 µM | – |
| COc1cc2c(Oc3ccc(NC(=O)c4cc5ncn(C)c5n(-c5ccc(F)cc5)c4=O)cc3F)ccnc2cc1OCCCN1CCOCC1 [Embodiment 37] | 0.1 to 0.5 µM | < 0.01 µM | – |
| Cn1cnc2cc(C(=O)Nc3ccc(Oc4ccnc(N)c4)c(F)c3)c(=O)n(-c3ccc(F)cc3)c21 [Embodiment 35] | – | 0.1 to 1 µM | – |
| CN(C)c1c(C(=O)Nc2ccc(Oc3ccnc4[nH]ccc34)c(F)c2)c(=O)n(-c2ccc(F)cc2)c2scnc12 [Embodiment 55] | – | 0.01 to 0.1 µM | – |
| Nc1nccc(Oc2ccc(NC(=O)c3cc4ncsc4n(-c4ccccc4CCO)c3=O)cc2F)c1Cl [Embodiment 19] | – | < 0.01 µM | – |
| O=C(Nc1ccc(Oc2ccnc(NC(=O)N3CCOCC3)c2)c(F)c1)c1cc2ncsc2n(-c2ccc(F)cc2)c1=O [Embodiment 11] | – | 0.01 to 0.1 µM | – |
| CN(CCO)C(=O)Nc1cc(Oc2ccc(NC(=O)c3cc4ncsc4n(-c4ccc(F)cc4)c3=O)cc2F)ccn1 [Embodiment 14] | – | 0.01 to 0.1 µM | – |
| O=C(Nc1ccc(Oc2ccnc3[nH]ccc23)c(F)c1)c1cc2ncsc2n(-c2ccccc2CCO)c1=O [Embodiment 21] | < 0.1 µM | 0.01 to 0.1 µM | – |
| O=C(Nc1ccc(Oc2ccnc(NC(=O)N3CCCC3)c2)c(F)c1)c1cc2ncsc2n(-c2ccc(F)cc2)c1=O [Embodiment 9] | – | < 0.01 µM | 0.1 to 0.5 µM |
| COc1ccc2c(Oc3ccc(NC(=O)c4cc5cnn(C)c5n(-c5ccc(F)cc5)c4=O)cc3F)ccnc2c1 [Embodiment 30] | – | 0.1 to 1 µM | – |
| CN(C)c1nc2cc(C(=O)Nc3ccc(Oc4ccnc5[nH]ccc45)c(F)c3)c(=O)n(-c3ccc(F)cc3)c2s1 [Embodiment 26] | 0.1 to 0.5 µM | 0.01 to 0.1 µM | – |
| CCOc1c(C(=O)Nc2ccc(Oc3ccnc4[nH]ccc34)c(F)c2)c(=O)n(-c2ccc(F)cc2)c2scnc12 [Embodiment 51] | – | 0.1 to 1 µM | 0.1 to 0.5 µM |

— patent US9562060B2, “Heterocyclic pyridone compound, and intermediate, preparation method and use thereof” (SHANGHAI HUILUN LIFE SCIENCE & TECHNOLOGY CO., LTD, priority 2011, dated 2017)
